Active and inactive are the calls of the source. The rule behind the calls is not given here.

The test concerns the target Beta-lactamase TEM-2 (Escherichia coli) (UniProt P62593). The test is described as follows: Inhibition of Escherichia coli W3110 beta-lactamase TEM2 assessed as inhibition of nitrocefin hydrolysis at 1 ug/ml pre-incubated for 5 mins by microtiter plate assay.

Consider `CC/C=C\C/C=C\C/C=C\CCCCCCCc1cccc(O)c1C(=O)O`, for which the outcome was Active.

Values taken from ChEMBL document CHEMBL1149069, “SB-202742, a novel beta-lactamase inhibitor isolated from Spondias mombin” (J Nat Prod, 1994).
